{"source": "patent US20060178342A1", "about": "“Hyaluronan as a cytotoxic agent, drug pre-sensitizer and chemo-sensitizer in the treatment of disease” (priority 2001, published 2006)", "key": {"[1]": {"test": "6-week study: treatment toxicity (body mass, blood, organ mass, survival)", "details": "30 mg/kg 5-FU"}, "HCT-116": {"tested_on": "HCT-116", "test": "Drug cytotoxicity assay, Camptosar ± 100 nM hyaluronan", "type": "cell-based", "details": "Homo sapiens, 48 hours continuous exposure, HyCAMP = Camptosar + 100 nM hyaluronan", "excerpt": "(§1) Human Colon Carcinoma Cell Lines HT-29, HCT-116, SK-CO-1, SW620, SW1222 were obtained from the Peter MacCallum, Cancer Institute, Melbourne. […] Human colon carcinoma cell lines 1215 and LIM2099 were kindly donated by Dr R Whitehead, Ludwig Institute, Melbourne. […] The various concentrations of Camptosar were achieved by diluting in the appropriate amount of growth media The HCT-116, HT-29, SK-CO-1, LIM1215, LIM2099, SW620 and SW1222 cell lines were routinely grown to 80% confluency. The cells were removed from the culture flask and counted using the haematocytometer. The cells HT-29, HCT-116, SK-CO-1, SW620 and SW1222 were resuspended to 15,000 cells/ml of cell-specific media. The LIM1215 and LIM2099 were resuspended to 30,000 cells/ml of cell-specific media. The cells were plated into 48 well culture plates (1 cm^2 surface area) by adding 1 ml of cell suspension per well. The cells were allowed to attach overnight prior to exposure to the test media. The cells were continuously exposed to the following concentrations of test media: 0 μg/ml, 0.25 μg/ml, 0.5 μg/ml, 1 μg/ml, 5 μg/ml, 25 μg/ml and 50 μg/ml Camptosar±100 nM hyaluronan (Modal Mw 850,000). The cells were continuously incubated with the test media for 48 hours. On the day of analysis, the cells were washed with Hanks Balanced Salt Solution. Subsequently, the cells were removed by trypsinization with 0.25% trypsin/EDTA. An aliquot of the trypsinized cell suspension was counted by the Coulter Counter. The raw duplicate or triplicate counts per well were obtained from the Z2 coulter counter. The counts will be averaged and will be expressed as percentage of no drug control."}, "HT-29": {"tested_on": "HT-29", "test": "Drug cytotoxicity assay, Camptosar ± 100 nM hyaluronan", "type": "cell-based", "details": "Homo sapiens, 48 hours continuous exposure, HyCAMP = Camptosar + 100 nM hyaluronan", "excerpt": "as §1"}, "LIM 1215": {"tested_on": "LIM 1215", "test": "Drug cytotoxicity assay, Camptosar ± 100 nM hyaluronan", "type": "cell-based", "details": "Homo sapiens, LIM1215; 48 hours continuous exposure; HyCAMP = Camptosar + 100 nM hyaluronan", "excerpt": "as §1"}, "LIM 2099": {"tested_on": "LIM 2099", "test": "Drug cytotoxicity assay, Camptosar ± 100 nM hyaluronan", "type": "cell-based", "details": "Homo sapiens; 48 hours continuous exposure; HyCAMP = Camptosar + 100 nM hyaluronan", "excerpt": "as §1"}, "SK-CO-1": {"tested_on": "SK-CO-1", "test": "Drug cytotoxicity assay, Camptosar ± 100 nM hyaluronan", "type": "cell-based", "details": "Homo sapiens, 48 hours continuous exposure, HyCAMP = Camptosar + 100 nM hyaluronan", "excerpt": "as §1"}, "SW 620": {"tested_on": "SW 620", "test": "Drug cytotoxicity assay, Camptosar ± 100 nM hyaluronan", "type": "cell-based", "details": "Homo sapiens, 48 hours continuous exposure, HyCAMP = Camptosar + 100 nM hyaluronan", "excerpt": "as §1"}, "SW1222": {"tested_on": "SW1222", "test": "Drug cytotoxicity assay, Camptosar ± 100 nM hyaluronan", "type": "cell-based", "details": "Homo sapiens, 48 hours continuous exposure, HyCAMP = Camptosar + 100 nM hyaluronan", "excerpt": "as §1"}, "[2]": {"tested_on": "Human LIM1215 colon cancer xenografts", "test": "14-week efficacy study, irinotecan ± HA in colon cancer xenografts", "type": "in vivo, mouse", "details": "50 mg/kg weekly; listed as irinotecan, hydrochloride", "excerpt": "Human LIM1215 colon cancer xenografts were inoculated into the mammary fat pad of athymic […] nude mice. Mice were randomly distributed into eight treatment groups (8 mice per group).\nThe treatment regime comprised of injections on Day 1 of a 7-day cycle for duration of fourteen weeks. Primary tumor volume, animal body mass, energy levels and food consumption were monitored three times weekly.\nAthymic CBA/WEHI nude female mice (Walter and Eliza Hall Research Institute, Melbourne, Australia), 6 to 8 weeks old, were maintained under specific pathogen-free conditions, with sterilized food and water available ad libitum. Each mouse received one injection containing 1×10^7 cells in 50-100 μl. […]\nAny animals with a tumor volume expressed as a percentage of body weight outside 0.25±0.10 (mean±1 SD) were excluded from data analysis. […]\nThe experimental end-point for each animal occurred either when the animal had to be euthanized due to a high degree of disease progression or when the 14-week study had been completed. The animals were monitored three times weekly and the following criteria were established to determine whether an animal had reached the experimental end point: tumour mass is greater than 10% of the animals total body mass; the animal is metabolically stressed (i.e. losing weight); or the animal is immobilized."}, "[3]": {"test": "14-week study: treatment toxicity and weight", "details": "50 mg/kg weekly"}, "[4]": {"test": "In vivo toxicology, daily iv Camptosar or HyCAMP", "details": "for immediate neurological toxicity, early or late on-set diarrhea: Camptosar or HyCAMP; for LD50: iv"}, "[5]": {"tested_on": "human breast cancer cells", "test": "Breast cancer cell count assay, cell line not specified or pooled", "type": "cell-based", "details": "Homo sapiens; cell line not stated; read-out: IC50 of adriamycin", "procedure": "The cell suspensions were counted with an automated cell counter (ZM-2 Coulter Counter) by adding 15 mL saline+0.2 ml of cell suspension. • Cells were resuspended to a number of: […] The cell suspensions were counted with an automated cell counter (ZM-2 Coulter Counter) by adding 15 mL saline+0.2 ml of cell suspension. Results were expressed as % of no drug control which was calculated as: […]"}, "[6]": {"details": "substance implied by list of adriamycin groups; cited from earlier work"}}, "note": "Structures can show the parent of a compound that is named as a salt."}
{"smiles": "O=c1[nH]cc(F)c(=O)[nH]1", "note": "[5-FU, 5-fluorouracil, reference compound]", "values": [{"measurement": "shrinkage of the uterus", "setting": "[1]", "result": 22, "unit": "%"}, {"measurement": "enlarged spleen, increase in mass", "setting": "[1]; vs saline group", "result": 61, "unit": "%"}]}
{"smiles": "CCc1c2c(nc3ccc(OC(=O)N4CCC(N5CCCCC5)CC4)cc13)-c1cc3c(c(=O)n1C2)COC(=O)[C@]3(O)CC", "note": "[Camptosar, irinotecan hydrochloride]", "values": [{"measurement": "IC50", "setting": "HCT-116", "result": 1.5, "unit": "µM"}, {"measurement": "IC50", "setting": "HT-29", "result": 16, "unit": "µM"}, {"measurement": "IC50", "setting": "LIM 1215", "result": 16, "unit": "µM"}, {"measurement": "IC50", "setting": "LIM 2099", "result": 31, "unit": "µM"}, {"measurement": "IC50", "setting": "SK-CO-1", "result": 5, "unit": "µM"}, {"measurement": "IC50", "setting": "SW 620", "result": 10, "unit": "µM"}, {"measurement": "IC50", "setting": "SW1222", "result": 32, "unit": "µM"}, {"measurement": "population survival to the end of the 14-week study", "setting": "[2]", "result": "approximately 57%"}, {"measurement": "degree of observed weight loss, irinotecan vs HyCAMP groups", "setting": "[3]", "result": "comparable"}, {"measurement": "accumulative dose received without severe adverse effects", "setting": "[4]; 25 mg/kg daily iv", "result": 350, "unit": "mg/kg"}, {"measurement": "body weight lost compared to HyCAMP group", "setting": "[4]; 25 mg/kg daily iv", "result": 18, "unit": "%"}, {"measurement": "survival time", "setting": "[4]; 25 mg/kg daily iv (HyCAMP: + 13.3 mg/kg HA)", "result": 14, "unit": "days"}, {"measurement": "immediate neurological toxicity, early or late on-set diarrhea", "setting": "[4]; 25 mg/kg daily iv", "result": "did not exhibit any immediate neurological toxicity, early or late on-set diarrhea"}, {"measurement": "survival time", "setting": "[4]; 50 mg/kg daily iv", "result": "≤ 12", "unit": "days"}, {"measurement": "immediate neurological toxicity, early or late on-set diarrhea", "setting": "[4]; 50 mg/kg daily iv", "result": "did not exhibit any immediate neurological toxicity, early or late on-set diarrhea"}, {"measurement": "diarrhea grade", "setting": "[4]; 100 mg/kg daily iv", "result": "2-3 Grade"}, {"measurement": "survival time", "setting": "[4]; 100 mg/kg daily iv", "result": "≤ 7", "unit": "days"}, {"measurement": "onset of neurological effects after injection", "setting": "[4]; 100 mg/kg iv", "result": 30, "unit": "seconds"}, {"measurement": "time to fully recuperate from neurological effects", "setting": "[4]; 100 mg/kg iv", "result": 5, "unit": "h"}, {"measurement": "onset of neurological effects after injection", "setting": "[4]; 150 mg/kg iv", "result": 30, "unit": "seconds"}, {"measurement": "recuperation from neurological effects", "setting": "[4]; 150 mg/kg iv", "result": "did not recuperate"}, {"measurement": "onset of neurological effects after injection", "setting": "[4]; 200 mg/kg iv", "result": 30, "unit": "seconds"}, {"measurement": "recuperation from neurological effects", "setting": "[4]; 200 mg/kg iv", "result": "did not recuperate"}, {"measurement": "organ mass compared to HyCAMP treatment group", "setting": "[4]; 50-100 mg/kg", "result": "significant increase in the mass of the stomach, lungs, spleen and brain"}, {"measurement": "LD50 at 14 days", "setting": "[4]; male, F1 CBAXC57 (out-bred), mouse, in vivo, intravenous", "result": "475 to 550", "unit": "mg/kg"}, {"measurement": "LD50", "setting": "[4]; male, F1 CBAXC57 (out-bred), mouse, in vivo, 50 mg/kg", "result": 475, "unit": "mg/kg"}, {"measurement": "LD50", "setting": "[4]; male, F1 CBAXC57 (out-bred), mouse, in vivo, 100 mg/kg", "result": 550, "unit": "mg/kg"}, {"measurement": "lethal dose", "setting": "[4]; single bolus iv", "result": "> 100", "unit": "mg/kg"}]}
{"smiles": "COc1cccc2c1C(=O)c1c(O)c3c(c(O)c1C2=O)C[C@@](O)(C(=O)CO)C[C@@H]3O[C@H]1C[C@H](N)[C@H](O)[C@H](C)O1", "note": "[adriamycin, doxorubicin, reference compound]", "values": [{"measurement": "IC50", "setting": "[5]", "result": 0.09, "unit": "µM"}, {"measurement": "Mouse LD50", "setting": "[6]", "result": 10, "unit": "mg/kg"}]}
